Data from US6075057A, “Inhibition of carbohydrates metabolism by quinone compounds” (priority 1997, dated 2000).
Like-named read-outs stand apart in the source and are kept apart here.

Legend:
[1] = target: T1, α-glucosidase (EC 3.2.1.20, type IV) (Saccharomyces cerevisiae, UniProt P53341); experiment: Initial screening assay for enzyme inhibition, α-glucosidase; assay type: biochemical, brewer's yeast
T1 construct: purchased Sigma; host or cells: brewer's yeast
Procedure: (§1) Optically pure enantiomers of avarol were synthetically prepared. A survey of potential inhibitory activity by avarol against twelve glycosidases was performed according to general procedures^15 (see experimental section). The enzymes tested and their biological sources are listed in Table 1 along with any pertinent references found for a given enzyme. In order to determine a working range for enzyme and substrate concentrations in which the rate of product formation was linear and steady-state kinetics were applicable, initial rate studies with varying substrate concentrations were performed in the absence of inhibitor. The Michaelis constants (Km 's) and Vmax values for these enzymes were determined from these plots using standard graphical analysis procedures as described in ref. 17 and are summarized in Table 2.
Initial screening assays with the enantiomeric avarols indicated significant activity by these compounds against only two of the twelve enzymes studies. […] This can occur when the two species compete for the same site or nearby sites on the enzyme. The equilibria that describe competitive inhibition are shown below. [drawing 3]
(§2) Enzymatic Assays. Piperazine-N,N'-bix-(2-ethanesulfonic acid)(PIPES) buffer, enzymes, and substrates were purchased from Sigma and used as received. Buffer solutions and enzymes (desiccated) were stored at 4° C. p-Nitrophenyl glycoside substrates were stored desiccated at -20° C. Enzyme inhibition assays and initial rate studies were carried out with the appropriate p-nitrophenyl glycoside substrates following the general procedure of Kajimoto et al., J. Am. Chem. Soc. 113:6187 (1991) with the exception that amyloglucosidase (EC 3.2,1.3, Asp. niger) was assayed following the method of Saul et al., Arch. Biochem. Biophys. 221:593 (1983). Assays were performed in a Perkin-Elmer Lambda Array 3840 Spectrophotometer using the built-in drive method (resolution=0.25, average=8) in a quartz cuvette (1 cm pathlength). Background absorption spectra were acquired using millipore filtered water as medium. Steady-state kinetics were maintained by adjusting the amount of enzyme used in each assay so that less than 10% of the substrate was converted to product for the duration of the reaction. Reactions were monitored at 400 nm (the absorbance of the p-nitrophenol product, ε=3204.5 M^-1 cm^-1) for a given amount of time and the initial rates were calculated and expressed as μmols p-nitrophenol formed per unit enzyme per second. Absportion readings for control reactions were corrected for the small baseline absorbance at time zero. Small discrepancies between time zero absorbance readings in a given inhibition assay and a time zero reading in a control assay were used to correct the overall absorbance change calculated in the inhibition assay. Inhibitors were dissolved in uv-grade absolute methanol.
(§3) Typical assay: A 1.5-mL quartz cuvette was charged with 940 μL of PIPES-NaOAc buffer solution (pH 6.56), 20 μL of inhibitor solution, and 20 μL of enzyme solution. The result was mixed well and then equilibrated at 37° C. for two minutes. 20 μL of the appropriate p-nitrophenyl glycoside solution was then added to initiate the reaction with rapid mixing. The reaction was monitored at 400 nm for 1 min and the absorbance change was used to calculate the initial hydrolysis rate. Lineweaver-Burk plots were constructed by repeating this procedure with varying substrate and inhibitor concentrations.

[2] = tested on: β-N-acetylglucosaminidase (EC 3.2.1.30); experiment: Initial screening assay for enzyme inhibition, β-N-acetylglucosaminidase; assay type: biochemical, bovine kidney; settings: 20 μM inhibitor, 2% MeOH
Procedure: as §1
as §2, with “Inhibitors were dissolved in uv-grade absolute methanol.” left out
(§4) Typical assay: A 1.5-mL quartz cuvette was charged with 940 μL of PIPES-NaOAc buffer solution (pH 6.56), 20 μL of inhibitor solution, and 20 μL of enzyme solution. […] The reaction was monitored at 400 nm for 1 min and the absorbance change was used to calculate the initial hydrolysis rate. […]

[3] = target: T2, β-galactosidase (EC 3.2.1.23, grade XI) (Aspergillus oryzae, UniProt Q2UCU3); experiment: Initial screening assay for enzyme inhibition, β-galactosidase (Asp. oryzae); assay type: biochemical; settings: 20 μM inhibitor, 2% MeOH, read-out: % Enzyme activity relative to control
T2 construct: purchased Sigma; host or cells: Aspergillus oryzae
T2 sequence (Q2UCU3 19-1005): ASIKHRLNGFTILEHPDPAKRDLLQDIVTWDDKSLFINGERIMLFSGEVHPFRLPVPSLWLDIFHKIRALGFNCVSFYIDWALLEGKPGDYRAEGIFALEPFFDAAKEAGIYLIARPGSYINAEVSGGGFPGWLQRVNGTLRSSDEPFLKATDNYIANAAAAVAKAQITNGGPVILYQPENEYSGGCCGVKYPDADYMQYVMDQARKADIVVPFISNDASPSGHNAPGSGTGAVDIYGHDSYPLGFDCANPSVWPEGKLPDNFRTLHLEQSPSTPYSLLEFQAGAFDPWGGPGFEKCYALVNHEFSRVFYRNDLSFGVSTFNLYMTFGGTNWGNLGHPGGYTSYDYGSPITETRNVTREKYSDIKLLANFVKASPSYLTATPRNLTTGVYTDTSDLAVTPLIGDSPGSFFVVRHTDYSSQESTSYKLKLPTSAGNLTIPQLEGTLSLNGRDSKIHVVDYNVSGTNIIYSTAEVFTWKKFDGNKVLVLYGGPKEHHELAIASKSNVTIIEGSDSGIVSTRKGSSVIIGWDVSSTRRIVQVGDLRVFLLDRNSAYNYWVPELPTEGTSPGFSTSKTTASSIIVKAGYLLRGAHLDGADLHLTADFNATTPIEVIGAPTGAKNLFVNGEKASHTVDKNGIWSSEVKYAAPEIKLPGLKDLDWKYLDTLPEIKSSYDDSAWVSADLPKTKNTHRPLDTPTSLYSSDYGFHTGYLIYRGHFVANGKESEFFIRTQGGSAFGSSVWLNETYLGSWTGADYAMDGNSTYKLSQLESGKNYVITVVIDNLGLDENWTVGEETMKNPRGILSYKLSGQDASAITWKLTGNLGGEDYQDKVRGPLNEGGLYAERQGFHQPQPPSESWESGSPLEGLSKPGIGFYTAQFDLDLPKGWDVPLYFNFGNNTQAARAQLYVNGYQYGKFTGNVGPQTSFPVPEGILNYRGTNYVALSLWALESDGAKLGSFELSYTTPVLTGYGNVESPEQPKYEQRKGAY
Procedure: as §1
as §2, with “Inhibitors were dissolved in uv-grade absolute methanol.” left out
as §4

[4] = target: T3, β-galactosidase (EC 3.2.1.23) (Aspergillus niger, UniProt P29853); experiment: Initial screening assay for enzyme inhibition, β-galactosidase (Asp. niger); assay type: biochemical; settings: 20 μM inhibitor, 2% MeOH, read-out: % Enzyme activity relative to control
T3 construct: purchased Sigma; host or cells: Aspergillus niger
T3 sequence (P29853 20-1006): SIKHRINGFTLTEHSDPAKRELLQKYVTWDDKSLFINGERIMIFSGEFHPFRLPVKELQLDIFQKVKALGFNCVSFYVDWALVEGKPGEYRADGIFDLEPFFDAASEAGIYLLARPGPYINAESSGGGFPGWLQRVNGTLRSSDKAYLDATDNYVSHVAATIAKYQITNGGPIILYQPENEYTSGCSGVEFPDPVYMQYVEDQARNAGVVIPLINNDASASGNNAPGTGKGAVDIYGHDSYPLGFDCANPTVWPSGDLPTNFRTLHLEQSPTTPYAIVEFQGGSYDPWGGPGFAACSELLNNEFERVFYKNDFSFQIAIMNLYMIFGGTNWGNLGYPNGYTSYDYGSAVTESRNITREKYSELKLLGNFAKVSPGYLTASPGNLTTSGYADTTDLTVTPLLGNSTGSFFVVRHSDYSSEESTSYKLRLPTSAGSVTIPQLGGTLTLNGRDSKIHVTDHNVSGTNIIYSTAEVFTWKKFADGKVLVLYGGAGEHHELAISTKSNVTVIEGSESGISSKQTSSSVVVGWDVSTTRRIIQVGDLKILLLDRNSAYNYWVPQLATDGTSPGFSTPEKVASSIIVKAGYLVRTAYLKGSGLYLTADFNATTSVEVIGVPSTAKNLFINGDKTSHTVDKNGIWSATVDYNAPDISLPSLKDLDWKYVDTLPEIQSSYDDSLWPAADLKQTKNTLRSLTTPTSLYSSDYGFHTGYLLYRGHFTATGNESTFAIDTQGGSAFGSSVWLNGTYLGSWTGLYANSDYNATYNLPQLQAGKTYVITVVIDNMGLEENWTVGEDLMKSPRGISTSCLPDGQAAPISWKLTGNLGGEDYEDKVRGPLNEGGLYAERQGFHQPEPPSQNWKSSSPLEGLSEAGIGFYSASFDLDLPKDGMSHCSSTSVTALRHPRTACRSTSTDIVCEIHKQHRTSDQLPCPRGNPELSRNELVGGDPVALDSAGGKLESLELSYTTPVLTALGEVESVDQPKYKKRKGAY
Procedure: as §1
as §2, with “Inhibitors were dissolved in uv-grade absolute methanol.” left out
as §4

[5] = target: T4, α-L-fucosidase (EC 3.2.1.51) (Bos taurus, UniProt Q2KIM0); experiment: Initial screening assay for enzyme inhibition, α-L-fucosidase; assay type: biochemical, bovine kidney; settings: read-out: % Enzyme activity relative to control
T4 construct: purchased Sigma; host or cells: bovine kidney
T4 sequence (Q2KIM0 23-468): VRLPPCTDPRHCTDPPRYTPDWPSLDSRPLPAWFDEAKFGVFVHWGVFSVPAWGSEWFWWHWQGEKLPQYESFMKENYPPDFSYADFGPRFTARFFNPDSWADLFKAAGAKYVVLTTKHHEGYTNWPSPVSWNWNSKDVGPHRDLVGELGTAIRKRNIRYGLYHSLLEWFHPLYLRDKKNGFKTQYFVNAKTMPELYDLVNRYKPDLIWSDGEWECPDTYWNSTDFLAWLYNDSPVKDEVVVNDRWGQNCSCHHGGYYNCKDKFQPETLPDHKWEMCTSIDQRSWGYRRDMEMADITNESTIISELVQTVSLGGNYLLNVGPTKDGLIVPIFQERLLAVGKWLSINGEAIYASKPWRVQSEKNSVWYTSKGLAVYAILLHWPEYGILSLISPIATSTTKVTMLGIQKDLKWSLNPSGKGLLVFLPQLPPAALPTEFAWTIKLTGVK
Procedure: as §1
as §2, with “Inhibitors were dissolved in uv-grade absolute methanol.” left out
as §4

[6] = tested on: α-galactosidase (EC 3.2.1.22); experiment: Initial screening assay for enzyme inhibition, α-galactosidase (E. coli); assay type: biochemical, Escherichia coli; settings: 20 μM inhibitor, 2% MeOH
Procedure: as §1
as §2, with “Inhibitors were dissolved in uv-grade absolute methanol.” left out
as §4

[7] = target: T5, α-galactosidase (EC 3.2.1.22) (Coffea arabica, UniProt Q42656); experiment: Initial screening assay for enzyme inhibition, α-galactosidase (green coffee beans); assay type: biochemical; settings: read-out: % Enzyme activity relative to control
T5 construct: purchased Sigma; host or cells: green coffee beans
T5 sequence (Q42656 16-378): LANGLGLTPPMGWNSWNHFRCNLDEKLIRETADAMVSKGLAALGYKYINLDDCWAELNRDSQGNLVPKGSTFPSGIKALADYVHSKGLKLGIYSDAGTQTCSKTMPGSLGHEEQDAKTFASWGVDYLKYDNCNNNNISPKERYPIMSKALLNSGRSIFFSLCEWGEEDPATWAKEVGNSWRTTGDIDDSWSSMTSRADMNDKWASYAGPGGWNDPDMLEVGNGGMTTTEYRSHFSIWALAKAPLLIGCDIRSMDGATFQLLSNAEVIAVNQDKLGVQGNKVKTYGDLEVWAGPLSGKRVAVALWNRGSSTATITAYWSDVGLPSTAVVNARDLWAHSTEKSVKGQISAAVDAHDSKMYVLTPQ
Procedure: as §1
as §2, with “Inhibitors were dissolved in uv-grade absolute methanol.” left out
as §4

[8] = tested on: amyloglucosidase (EC 3.2.1.3); experiment: Initial screening assay for enzyme inhibition, amyloglucosidase; assay type: biochemical, Aspergillus niger; settings: for % Enzyme activity relative to control: amyloglucosidase, 20 μM inhibitor, 2% MeOH
Procedure: as §1, §2, §3

[9] = tested on: β-mannosidase (EC 3.2.1.25); experiment: Initial screening assay for enzyme inhibition, β-mannosidase; assay type: biochemical, snail; settings: 20 μM inhibitor, 2% MeOH
Procedure: as §1
as §2, with “Inhibitors were dissolved in uv-grade absolute methanol.” left out
as §4

[10] = target: T6, β-xylosidase (EC 3.2.1.37) (Aspergillus niger, UniProt O00089); experiment: Initial screening assay for enzyme inhibition, β-xylosidase; assay type: biochemical; settings: 20 μM inhibitor, 2% MeOH, read-out: % Enzyme activity relative to control
T6 construct: purchased Sigma; host or cells: Aspergillus niger
T6 sequence (O00089 27-804): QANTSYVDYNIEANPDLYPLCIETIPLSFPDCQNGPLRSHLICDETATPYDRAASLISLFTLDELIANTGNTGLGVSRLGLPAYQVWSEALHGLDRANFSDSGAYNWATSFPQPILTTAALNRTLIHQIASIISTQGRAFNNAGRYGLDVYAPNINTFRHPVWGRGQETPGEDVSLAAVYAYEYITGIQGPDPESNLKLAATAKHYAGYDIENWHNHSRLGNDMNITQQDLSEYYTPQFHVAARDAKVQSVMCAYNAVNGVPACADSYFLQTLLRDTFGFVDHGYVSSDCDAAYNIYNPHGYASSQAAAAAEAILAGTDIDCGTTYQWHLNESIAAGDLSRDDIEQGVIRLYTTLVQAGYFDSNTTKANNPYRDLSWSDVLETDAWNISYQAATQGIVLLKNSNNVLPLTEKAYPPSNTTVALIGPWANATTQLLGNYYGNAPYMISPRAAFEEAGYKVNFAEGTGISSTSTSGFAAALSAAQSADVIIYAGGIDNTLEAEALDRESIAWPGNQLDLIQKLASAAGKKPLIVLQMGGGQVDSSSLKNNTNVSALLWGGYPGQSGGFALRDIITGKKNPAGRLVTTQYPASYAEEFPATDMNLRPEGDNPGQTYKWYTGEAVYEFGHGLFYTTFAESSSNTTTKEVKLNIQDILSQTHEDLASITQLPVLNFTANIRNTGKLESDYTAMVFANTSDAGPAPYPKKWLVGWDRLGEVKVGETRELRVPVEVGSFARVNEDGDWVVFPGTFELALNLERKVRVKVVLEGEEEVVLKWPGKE
Procedure: as §1
as §2, with “Inhibitors were dissolved in uv-grade absolute methanol.” left out
as §4

[11] = tested on: microtubule polymerization; settings: in vitro and in vivo; cited from earlier work
[12] = tested on: L5178Y mouse lymphoma cells; settings: in vitro and in vivo; cited from earlier work
HTLV-III/LAV = settings: in vitro; cited from earlier work
Ames-microsomal assay = settings: cited from earlier work
[13] = tested on: benzo[a]pyrene monooxygenase; settings: cited from earlier work
[14] = documented; cited from earlier work

T1 sequence (P53341 whole entry): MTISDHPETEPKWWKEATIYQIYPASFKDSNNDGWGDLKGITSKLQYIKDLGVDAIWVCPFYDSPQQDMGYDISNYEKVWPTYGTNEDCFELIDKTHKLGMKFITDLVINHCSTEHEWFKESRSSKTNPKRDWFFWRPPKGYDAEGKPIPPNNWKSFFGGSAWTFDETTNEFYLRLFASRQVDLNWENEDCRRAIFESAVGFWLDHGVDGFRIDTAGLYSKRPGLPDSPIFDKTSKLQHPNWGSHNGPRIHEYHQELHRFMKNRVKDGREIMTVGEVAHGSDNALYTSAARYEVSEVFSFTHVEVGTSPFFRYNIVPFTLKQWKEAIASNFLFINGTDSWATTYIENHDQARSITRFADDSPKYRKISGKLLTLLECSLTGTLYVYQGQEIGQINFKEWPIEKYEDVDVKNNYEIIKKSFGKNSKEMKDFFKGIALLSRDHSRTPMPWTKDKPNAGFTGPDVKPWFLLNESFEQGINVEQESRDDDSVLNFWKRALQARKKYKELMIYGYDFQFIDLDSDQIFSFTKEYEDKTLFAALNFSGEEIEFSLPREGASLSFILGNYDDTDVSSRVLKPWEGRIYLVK

Compound | inhibition at 20 µM ([1]; 20 μM) | remaining activity at 20 µM ([1]; α-glucosidase, 20 μM inhibitor, 2% MeOH, read-out: % Enzyme activity relative to control) | % Enzyme activity relative to control [2] | remaining activity at 20 µM [3] | remaining activity at 20 µM [4] | remaining activity at 20 µM ([5]; α-L-fucosidase, 20 μM inhibitor, 2% MeOH) | % Enzyme activity relative to control [6] | remaining activity at 20 µM ([7]; α-galactosidase (green coffee beans), 20 μM inhibitor, 2% MeOH) | inhibition of amyloglucosidase (in words) ([8]; Table 3) | % Enzyme activity relative to control [8] | % Enzyme activity relative to control [9] | remaining activity at 20 µM [10] | inhibition of microtubule polymerization [11] | cytotoxicity against L5178Y mouse lymphoma cells [12] | inhibition of replication of HTLV-III/LAV (HTLV-III/LAV) | mutagenicity (Ames-microsomal assay) | antimutagenic activity through inhibition of benzo[a]pyrene monooxygenase [13] | toxicity [14] | remaining activity at 20 µM [5] | remaining activity at 20 µM [7]
C=C1CCC[C@H]2[C@](C)(CC3=C(O)C(=O)C=C(OC)C3=O)[C@@H](C)CC[C@]12C [ilimaquinone, reference compound] | 20% | 82% | 96% | 98% | 111% | 109% | 101% | 97% | strong inhibitor of amyloglucosidase | 57% | 108% | 105% |  |  |  |  |  |  |  | 
CC1=CCC[C@H]2[C@](C)(Cc3cc(O)ccc3O)[C@@H](C)CC[C@]12C [avarol] |  |  |  |  |  |  |  |  |  |  |  |  | inhibition of microtubule polymerization | highly selective cytotoxicity | inhibition of replication | neither direct nor indirect mutagens | antimutagenic activity through the inhibition of benzo[a]pyrene monooxygenase | low toxicity |  | 
CC1=CCC[C@H]2[C@](C)(CC3=CC(=O)C=CC3=O)[C@@H](C)CC[C@]12C [avarone, Avarone] |  |  |  |  |  |  |  |  |  |  |  |  |  |  |  | neither direct nor indirect mutagens | antimutagenic activity through the inhibition of benzo[a]pyrene monooxygenase | low toxicity |  | 
CC1=CCC[C@H]2[C@](C)(CC/C(C)=C/C[n+]3cn(C)c4ncnc(N)c43)[C@@H](C)CC[C@]12C [C-4-10] |  |  | 91% | 108% | 95% |  | 102% |  |  | 94% | 109% | 102% |  |  |  |  |  |  | 100% | 96%
